The values that follow come from patent US20240229043A1, “Methods and Compositions for Treating, Ameliorating, and/or Preventing Chronic Kidney Disease (CKD) and Complications thereof by Regulating DPEP1, CASP9, ACSS2 and/or FASN” (THE TRUSTEES OF THE UNIVERSITY OF PENNSYLVANIA, priority 2022, published 2024).

Peptide text beside a SMILES is read from it. * marks the point of attachment. Cbz = O=C(OCc1ccccc1)*; CH2F = FC*

One series deals with FASN (Mus musculus, UniProt P19096). To be noted: primary TECs; various concentrations for 48 h.
Sequence of FASN (P19096 whole entry): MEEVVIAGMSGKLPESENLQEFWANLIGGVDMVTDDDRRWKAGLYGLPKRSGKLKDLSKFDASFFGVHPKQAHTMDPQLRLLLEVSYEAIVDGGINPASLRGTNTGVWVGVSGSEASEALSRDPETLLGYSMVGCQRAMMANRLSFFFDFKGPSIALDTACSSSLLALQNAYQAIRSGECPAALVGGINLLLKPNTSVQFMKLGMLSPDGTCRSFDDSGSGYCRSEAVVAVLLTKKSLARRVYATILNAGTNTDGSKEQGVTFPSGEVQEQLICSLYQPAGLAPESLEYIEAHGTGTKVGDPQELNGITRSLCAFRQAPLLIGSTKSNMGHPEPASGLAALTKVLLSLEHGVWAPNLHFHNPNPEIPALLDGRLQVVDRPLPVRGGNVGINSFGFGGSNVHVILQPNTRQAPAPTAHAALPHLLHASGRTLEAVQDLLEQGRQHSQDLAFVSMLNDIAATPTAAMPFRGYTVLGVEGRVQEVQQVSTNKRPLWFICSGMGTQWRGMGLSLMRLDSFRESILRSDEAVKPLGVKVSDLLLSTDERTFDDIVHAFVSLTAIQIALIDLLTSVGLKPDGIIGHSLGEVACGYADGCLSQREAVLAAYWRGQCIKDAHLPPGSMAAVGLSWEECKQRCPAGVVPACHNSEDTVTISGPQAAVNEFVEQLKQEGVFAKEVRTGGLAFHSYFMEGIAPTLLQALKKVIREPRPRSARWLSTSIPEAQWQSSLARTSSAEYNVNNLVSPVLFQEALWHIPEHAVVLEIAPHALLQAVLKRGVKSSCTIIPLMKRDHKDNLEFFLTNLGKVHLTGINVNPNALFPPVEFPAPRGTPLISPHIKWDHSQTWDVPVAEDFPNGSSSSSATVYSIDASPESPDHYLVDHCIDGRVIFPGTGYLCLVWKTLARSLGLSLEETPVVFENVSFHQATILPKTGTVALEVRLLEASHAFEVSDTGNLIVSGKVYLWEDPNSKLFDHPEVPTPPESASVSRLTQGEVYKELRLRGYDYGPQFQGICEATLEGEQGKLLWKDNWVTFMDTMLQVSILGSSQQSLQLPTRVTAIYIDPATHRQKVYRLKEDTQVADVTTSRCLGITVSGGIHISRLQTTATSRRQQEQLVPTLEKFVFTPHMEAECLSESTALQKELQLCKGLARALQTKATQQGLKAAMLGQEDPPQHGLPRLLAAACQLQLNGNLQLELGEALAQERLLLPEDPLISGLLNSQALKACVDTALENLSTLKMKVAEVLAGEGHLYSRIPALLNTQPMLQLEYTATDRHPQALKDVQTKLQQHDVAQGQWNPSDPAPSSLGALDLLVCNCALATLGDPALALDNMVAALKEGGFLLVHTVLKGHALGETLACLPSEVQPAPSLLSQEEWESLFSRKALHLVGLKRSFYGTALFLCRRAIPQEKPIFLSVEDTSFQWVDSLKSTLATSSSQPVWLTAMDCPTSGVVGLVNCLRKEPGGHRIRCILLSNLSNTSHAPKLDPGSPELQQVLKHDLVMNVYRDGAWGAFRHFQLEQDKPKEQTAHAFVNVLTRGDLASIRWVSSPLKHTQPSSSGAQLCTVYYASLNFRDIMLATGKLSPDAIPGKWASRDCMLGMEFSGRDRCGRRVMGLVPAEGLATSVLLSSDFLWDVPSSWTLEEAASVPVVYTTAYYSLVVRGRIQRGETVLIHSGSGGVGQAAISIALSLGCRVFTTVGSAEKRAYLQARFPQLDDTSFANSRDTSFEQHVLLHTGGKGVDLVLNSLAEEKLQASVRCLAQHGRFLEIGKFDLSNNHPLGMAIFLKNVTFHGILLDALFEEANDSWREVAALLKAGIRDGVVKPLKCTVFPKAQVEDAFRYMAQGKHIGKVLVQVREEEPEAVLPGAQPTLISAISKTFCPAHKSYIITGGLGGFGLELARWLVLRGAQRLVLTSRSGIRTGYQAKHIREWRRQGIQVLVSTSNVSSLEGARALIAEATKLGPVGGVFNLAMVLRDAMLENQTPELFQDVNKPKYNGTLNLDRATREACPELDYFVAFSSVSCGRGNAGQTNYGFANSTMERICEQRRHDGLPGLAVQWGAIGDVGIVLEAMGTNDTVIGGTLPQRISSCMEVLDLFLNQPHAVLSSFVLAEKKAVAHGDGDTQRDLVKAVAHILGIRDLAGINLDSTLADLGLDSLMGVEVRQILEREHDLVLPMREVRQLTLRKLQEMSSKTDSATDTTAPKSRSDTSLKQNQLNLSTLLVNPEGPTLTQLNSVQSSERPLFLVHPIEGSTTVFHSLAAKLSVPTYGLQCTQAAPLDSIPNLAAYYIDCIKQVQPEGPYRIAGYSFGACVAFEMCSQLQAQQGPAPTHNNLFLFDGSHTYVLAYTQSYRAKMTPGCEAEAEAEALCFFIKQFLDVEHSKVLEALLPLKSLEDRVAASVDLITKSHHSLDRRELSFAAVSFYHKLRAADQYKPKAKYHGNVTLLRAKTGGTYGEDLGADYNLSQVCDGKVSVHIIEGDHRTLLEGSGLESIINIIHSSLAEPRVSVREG
The subject of the next series is ferroptosis. The series is described as follows: Cisplatin-induced injury in Chmp1a+/- mice injected with liproxstatin. The class given is in vivo. As to conditions: for protection from cisplatin-induced injury / kidney disease: Chmp1a+/- (heterozygous) mice. The protocol: Eight- to ten-week-old male mice were used in this study. All mice were maintained under SPF conditions with ambient temperature 20-22, humidity 50-70%, and a 12/12 h light/dark cycle. All animal experiments were reviewed and approved and were performed in accordance with the institutional guidelines. Dpep1 mutant mice were generated by co-injection of Cas9 mRNA (100 ng/μl; ThermoFisher, A29378), sgRNA (50 ng/μl) in CRISPR Cas9 Mouse Targeting Core of University of Pennsylvania. Two sgRNAs were generated with Guide-it™ sgRNA In Vitro Transcription Kit (Takara #632635). Chmp1a mutant mice were imported from Mutant Mouse Regional Resource Center of UC Davis (#031089-UCD). For FA-induced nephropathy mouse models, 8-week-old male wild-type and Dpep1^+/− or Chmp1a^+/− mice were injected with FA (250 or 200 mg/kg, dissolved in 300 mM sodium bicarbonate) intraperitoneally and euthanized on day 7. […] Mice were euthanized on day 3. For the UUO model, mice underwent ligation of the left ureter and were euthanized on day 7, and sham-operated mice were used as controls.
Serum creatinine was measured by Creatinine Enzymatic and Creatinine Standard (DIAZYME #DZ072B-KY1). Serum BUN was measured by Infinity™ Urea Liquid Stable Reagent (Pointe Scientific #B7552150). Both measurements were performed according to the manufacturers' instructions.
RNA was isolated from mouse kidneys or cultured cells using Trizol reagent (Invitrogen) and was reverse transcribed into cDNA using cDNA Archival Kit (Life Technologies). Real-time RT-PCR was performed using SYBR Green Master Mix (Applied Biosystems).

In the next series the test system is primary TECs. As to the kind of experiment: Cisplatin-treated primary kidney tubule cells from wild-type and Chmp1a+/- mice. The class given is cell-based. How it is done: For primary culture of renal tubule cells, kidneys were collected from 2- to 4-week-old male mice. Cells were isolated by 2 mg/ml collagenase I (Gibco #17018-029) digestion for 30 min at 37° C. with gentle stirring and filtered through a 100-μm mesh. The cell suspension was cultured in RPMI 1640 (Corning #10-040-CM) supplement with 10% FBS (Atlanta Biologicals #S11950), 20 ng/ml EGF (Peprotech #AF-100-15), 1×ITS (Gibco #51500-056), and 1% penicillin-streptomycin (Corning #30-002-CI) at 5% CO2 and 37° C.
Primary cultured renal tubule cells or NRK52E cells were incubated with 1 μM transferrin (Thermo Fisher #T13342) for 4 h, or 5 μM mitoSOX (ThermoFisher #M36008) for 10 min, or 2 μM BODIPY™ 581/591 C11 (Thermo Fisher #D3861) for 0.5 h, or 20 ng/ml dextran conjugated to 488 (Thermo Fisher #D22910) for 2 h, at 5% CO2 and 37° C., respectively. After washing with PBS, cells were imaged directly under the confocal or regular fluorescence microscope.
(§1) Mouse primary tubular epithelial cells from wild-type, mutant mice or NRK52E cells were plated in 96-well plate. Transfection of NRK52E cells with siRNA was carried out as described above. […] Cells were harvested and stained with trypan blue (Thermo Fisher #T10282) to visualize dead cells. Cell counts were analyzed in Countess Auto Counter (Invitrogen, C10227). LDH release was quantified using CytoTox 96 Non-Radioactive Cytotoxicity Assay (Promega #G1780). Medium was collected in triplicates, spun down, and incubated in a 96-well plate with the CytoTox reagent for 20-30 min. After adding the stop solution, the absorbance signal was measured at 490 nm in a plate reader. The ratio between dead cell and live cell was calculated through the measurement using MultiTox-Fluor Multiplex Cytotoxicity Assay (Promega #9201). Cells were incubated in assay buffer containing live cell substrate GF-AFC and dead cell substrate bis-AAF-R110 for 30 min at 37° C. The plate fluorescence was measured using a plate reader as following: viability: excitation ˜400 nm; emission ˜505 nm. cytotoxicity: excitation ˜485 nm; emission ˜520 nm.

The subject of series [1] is Rat epithelial cells (NRK-52E). The series is described as follows: Cisplatin-induced LDH release in siControl and siChmp1a transfected cells pretreated with cell death inhibitors. The class given is cell-based. To be noted: siControl and siChmp1a cells pretreated with inhibitor 18 h, then 20 μM cisplatin 24 h. How it is done:
Rat epithelial cells (NRK-52E; ATCC (CRL-1571)) were cultured in DMEM with 5% fetal bovine serum (FBS). Dpep1 and Chmp1a siRNA were purchased from Dharmacon. Dpep1-overexpressing vector pCMV6-Entry was purchased from OriGene Technologies, Inc. Transfection of gene-targeting siRNA, negative control siRNA, and overexpressing plasmid were performed using Lipofectamine 3000.
For transfection, cells were seeded in six-well plates, grown overnight until 60-70% confluency, and then transfected with 50 nM (final concentration) siRNA or 5 μg Dpep1-overexpression plasmids. Transfection efficiency was determined under a fluorescence microscope by the presence of Cy3 transfection control. […] After 24 h of Dpep1 siRNA transfection, cells were treated with cell death inducers for 18-20 h, respectively: 5 μM Nigericin (Sigma #N7143); 5 μM CPT (Cayman #11694); 5 μM erastin (Cayman #17754), 20 μM FIN56 (Cayman #25180), 5 μM FINO2 (Cayman #25096) and 5 μM RSL3 (Cayman #19288).
as §1
(Release of lactate dehydrogenase indicates damage to the cell membrane.)

The next series deals with T1, CASP9 (Mus musculus, UniProt Q8C3Q9).
T1 construct: from tissue; host or cells: living mice; read-outs in serum and kidney
T1 sequence (Q8C3Q9 whole entry): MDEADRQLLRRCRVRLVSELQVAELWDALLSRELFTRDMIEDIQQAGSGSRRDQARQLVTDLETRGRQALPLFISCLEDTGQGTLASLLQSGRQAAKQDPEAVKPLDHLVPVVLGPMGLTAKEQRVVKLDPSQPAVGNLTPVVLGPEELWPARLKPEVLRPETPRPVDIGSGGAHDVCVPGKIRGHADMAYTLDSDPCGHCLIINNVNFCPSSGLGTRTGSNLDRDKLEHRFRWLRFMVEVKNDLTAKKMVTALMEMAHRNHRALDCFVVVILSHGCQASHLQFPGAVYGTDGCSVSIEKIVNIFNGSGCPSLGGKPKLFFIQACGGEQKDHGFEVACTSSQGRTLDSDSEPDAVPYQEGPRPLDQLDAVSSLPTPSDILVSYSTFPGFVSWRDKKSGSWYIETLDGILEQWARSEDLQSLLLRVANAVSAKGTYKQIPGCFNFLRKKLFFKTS
T1 sequence (O88879 whole entry partner): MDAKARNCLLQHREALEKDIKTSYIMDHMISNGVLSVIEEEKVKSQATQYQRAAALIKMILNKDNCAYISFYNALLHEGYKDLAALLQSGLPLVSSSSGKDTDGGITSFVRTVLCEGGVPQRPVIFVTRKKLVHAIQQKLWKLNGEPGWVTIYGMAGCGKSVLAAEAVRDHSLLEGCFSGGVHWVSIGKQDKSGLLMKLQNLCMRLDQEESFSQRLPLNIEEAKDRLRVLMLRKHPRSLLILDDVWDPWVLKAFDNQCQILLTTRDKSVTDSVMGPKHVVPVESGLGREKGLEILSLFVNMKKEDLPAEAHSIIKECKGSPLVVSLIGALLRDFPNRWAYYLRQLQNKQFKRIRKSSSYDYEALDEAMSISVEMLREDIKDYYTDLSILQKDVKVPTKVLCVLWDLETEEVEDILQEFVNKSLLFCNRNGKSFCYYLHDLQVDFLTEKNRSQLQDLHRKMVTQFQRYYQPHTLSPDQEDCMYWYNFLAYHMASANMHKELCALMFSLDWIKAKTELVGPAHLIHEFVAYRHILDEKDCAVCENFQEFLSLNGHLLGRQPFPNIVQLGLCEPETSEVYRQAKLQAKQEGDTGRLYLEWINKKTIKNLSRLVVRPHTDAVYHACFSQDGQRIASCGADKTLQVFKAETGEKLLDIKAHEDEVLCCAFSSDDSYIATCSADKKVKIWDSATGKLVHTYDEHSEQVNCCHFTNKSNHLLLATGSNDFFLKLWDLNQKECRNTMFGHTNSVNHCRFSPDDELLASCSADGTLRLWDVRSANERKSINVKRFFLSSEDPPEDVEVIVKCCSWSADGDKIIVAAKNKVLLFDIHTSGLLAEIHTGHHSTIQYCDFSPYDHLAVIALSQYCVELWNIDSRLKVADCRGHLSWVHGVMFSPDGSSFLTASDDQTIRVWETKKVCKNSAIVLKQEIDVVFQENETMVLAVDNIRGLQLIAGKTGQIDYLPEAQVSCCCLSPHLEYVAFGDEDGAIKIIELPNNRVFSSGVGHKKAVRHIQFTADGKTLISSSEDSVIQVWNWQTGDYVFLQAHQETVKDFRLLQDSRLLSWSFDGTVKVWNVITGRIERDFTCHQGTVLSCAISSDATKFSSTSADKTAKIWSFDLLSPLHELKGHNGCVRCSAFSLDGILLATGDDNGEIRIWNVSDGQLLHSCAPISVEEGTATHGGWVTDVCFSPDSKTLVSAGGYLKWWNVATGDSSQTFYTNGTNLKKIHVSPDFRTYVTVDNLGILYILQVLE
T1 sequence (P62897 2-105 partner limits assumed): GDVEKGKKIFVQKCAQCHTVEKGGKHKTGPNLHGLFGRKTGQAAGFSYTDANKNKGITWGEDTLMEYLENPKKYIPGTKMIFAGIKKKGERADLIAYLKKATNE
The series is described as follows: Cisplatin model of kidney injury, mice treated with CASP9 inhibitor. The class given is in vivo. The protocol:
Casp9 HZ mice were obtained. Mice were injected intraperitoneally with FA (#10752485 ACROS Organics, 250 mg/kg, dissolved in […] sodium bicarbonate) or sodium bicarbonate (#56014, Sigma-Aldrich) and euthanized on day 7. Mice were euthanized on day 7 after left ureteral ligation or sham surgery. […] Mice were euthanized 18 weeks after uninephrectomy and following low-dose STZ (50 mg/kg, i.p. for 5 days) (streptozotocin, Santa Cruz Biotechnology, #U-9889) or PBS injection. Aging mice were euthanized at 2 years of age. Transgenic mice (Nphs1-rtTA/TRE-APOL1-G2) were placed on a doxycycline diet to induce transgene expression and euthanized.
RNA was isolated from kidney tissue or cells using TRIzol (Invitrogen, #15596018). RNA was reverse-transcribed using the High-Capacity cDNA Reverse Transcription Kit (Applied Biosystems, #4368813), and qRT-PCR was run in the ViiA 7 System (Life Technologies) instrument using SYBR Green Master Mix (Applied Biosystems, #4367659) and gene-specific primers. For quantitative analysis, samples were normalized to glyceraldehyde-3-phosphate dehydrogenase (GAPDH) with the ΔΔCt method.
BUN was determined by a TRACE DMA Urea kit (Thermo Electron Corporation, #TR12003), according to the manufacturer's instructions. Electrolytes (Na, K, and Cl) and hemoglobin were measured with the iSTAT Portable Clinical Analyzer using i-STAT CHEM8+ cartridge (Abaxis, #10023291). Kidney tissue was stained with hematoxylin and eosin to investigate renal injury. The degree of tubulointerstitial damage was scored semiquantitatively on a 0 to 5+ scale, according to the percentage of the area affected by hydropic degeneration, hyaline casts, cytoplasmic vacuolization, loss of the brush border, and tubular lumen dilation (0=normal, 1=<10%, 2=10 to 25%, 3=26 to 50%, 4=51 to 75%, and 5=>75%). Sirius red staining was performed according to the manufacturer's protocol (Polysciences, #24901) to determine the degree of fibrosis. For each analysis, five to eight fields were randomly selected and quantified using the Fiji software. Each dot represents the mean score of a single animal.
Several small molecular inhibitors that target CASP9 have been developed with good specificity. […] Serum creatinine and BUN levels were lower, and renal expression of Havcr1 was dampened in Z-LEHD-FMK-treated mice.

Where [2] appears, read: cisplatin-injected mice, inhibitor daily starting 1 day before cisplatin, vs vehicle.

With `COCc1[nH]c(C(F)(F)F)nc1-c1cc(C(=O)N2CC(c3ccc(C#N)cc3)C2)c(C)cc1C` [TVB-3664], the “cell death (cell viability)” value on FASN is recorded as “did not increase cell death”.
`Clc1cccc(CN=C2Nc3ccccc3NC23CCNCC3)c1` [liproxstatin1]: the “protection from cisplatin-induced injury / kidney disease” value with ferroptosis (listed as Liproxstatin1) is reported as “protected”. Also, the “protection from cisplatin-induced injury / kidney disease” value in the series on ferroptosis (listed as liproxstatin) was “marked protection”. Besides, in the series on ferroptosis (Chmp1a+/- mice, cisplatin), the “Kidney injury marker Kim1” value is “lower” and the serum creatinine level result is listed as “reduced”. The cisplatin-induced cytotoxicity result in the series with primary TECs (Chmp1a+/- primary TECs, compared with inhibitors of necroptosis, apoptosis, pyroptosis) is recorded as “alleviated”. For the same compound, the “lipid peroxidation (C11 BODIPY 581/591) induced by cisplatin” value in the series with primary TECs (primary TECs from wild-type or Chmp1a+/- mice) was “lower”. Further, the LDH release entry in series [1] is recorded as “reduced this effect”.
Regarding `CCO[C@@H]1OC(=O)C[C@@H]1NC(=O)[C@@H]1CCCN1C(=O)[C@@H](NC(=O)c1ccc(N)c(Cl)c1)C(C)(C)C` [Vx765], the LDH release entry in series [1] was “No change”.
Regarding `CN1C(=O)C(Cc2c[nH]c3ccccc23)NC1=S` (stereo not shown) [Nec-1, necrostatin-1], in series [1], the LDH release result is reported as “No change”.
As for `COC(=O)C[C@H](NC(=O)[C@H](C)NC(=O)[C@@H](NC(=O)OCc1ccccc1)C(C)C)C(=O)CF` [Z-VAD-FMK] (Cbz-Val-Ala-Asp(OMe)-CH2F), the LDH release entry in series [1] is listed as “No change”.
For `COC(=O)CC[C@H](NC(=O)[C@H](CC(C)C)NC(=O)OCc1ccccc1)C(=O)N[C@@H](Cc1cnc[nH]1)C(=O)N[C@@H](CC(=O)OC)C(=O)CF` [Z-LEHD-FMK] (Cbz-LE(OMe)HD(OMe)-CH2F), the “inflammatory cytokines (Il1b, Csf2, Tnfa, and Cxcl10) and Icam1 expression” value on CASP9 (after cisplatin injury, qRT-PCR, kidney) is on record as “lower”. For the same compound, at CASP9 (cisplatin-injected mice), the “kidney function and kidney damage” value is “improved kidney function and lessened kidney damage”. Further, at CASP9 (setting [2]), the BUN level entry is reported as “lower” and the serum creatinine level result was “lower”. Further, at CASP9 (cisplatin-injected mice, vs vehicle), the “renal expression of Havcr1” value is “dampened”.
